The source made the active and inactive calls.
Tests used:
[1] = biological target: T1, Corticotropin-releasing factor receptor 2/Corticotropin-releasing factor-binding protein (Homo sapiens, UniProt P24387+Q13324); experiment: Dose Response confirmation of uHTS hits for small molecule antagonists of the CRF-binding protein and CRF-R2 receptor complex.; assay type: functional; conditions: read-out: IC50_Mean
T1 sequence (Q13324 whole entry): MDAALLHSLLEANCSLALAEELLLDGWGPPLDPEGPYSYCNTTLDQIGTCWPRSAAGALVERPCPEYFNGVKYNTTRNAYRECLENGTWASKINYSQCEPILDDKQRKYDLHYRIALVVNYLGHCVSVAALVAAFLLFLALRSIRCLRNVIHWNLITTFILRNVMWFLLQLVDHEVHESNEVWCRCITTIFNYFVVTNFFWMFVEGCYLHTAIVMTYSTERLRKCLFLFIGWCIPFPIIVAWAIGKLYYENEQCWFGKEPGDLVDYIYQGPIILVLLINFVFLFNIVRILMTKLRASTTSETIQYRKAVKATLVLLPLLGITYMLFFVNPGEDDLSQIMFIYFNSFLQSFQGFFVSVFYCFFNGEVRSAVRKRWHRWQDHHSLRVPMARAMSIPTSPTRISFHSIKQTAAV
T1 sequence (P24387 whole entry): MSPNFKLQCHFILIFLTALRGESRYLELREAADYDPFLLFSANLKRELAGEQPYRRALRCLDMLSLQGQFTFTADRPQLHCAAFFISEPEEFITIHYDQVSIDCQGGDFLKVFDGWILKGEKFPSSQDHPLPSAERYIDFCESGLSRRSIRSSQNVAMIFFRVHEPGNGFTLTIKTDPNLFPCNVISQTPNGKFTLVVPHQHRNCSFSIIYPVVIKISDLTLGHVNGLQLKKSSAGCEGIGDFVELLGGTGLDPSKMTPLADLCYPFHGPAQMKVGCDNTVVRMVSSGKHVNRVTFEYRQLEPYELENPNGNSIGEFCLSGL

[2] = biological target: T1, Corticotropin-releasing factor receptor 2/Corticotropin-releasing factor-binding protein; experiment: activators of CRF receptor 2 with binding protein – uHTS hits, confirmation (AID 602473); assay type: functional; conditions: read-out: EC50_Mean
[3] = biological target: T2, Heat shock factor protein 1 (Mus musculus, UniProt P38532); experiment: inhibition of MG132-induced HSE-luciferase signal, confirmation, cell-based, NIH3T3, luminescence, dose retest (AID 2382); assay type: functional;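 note: NIH3T3 fibroblasts with HSF1-driven luciferase reporter stressed by proteasome inhibitor MG132; luminescence from HSF1-driven luciferase expression after 8 hours of MG132 stress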
T2 sequence (P38532 whole entry): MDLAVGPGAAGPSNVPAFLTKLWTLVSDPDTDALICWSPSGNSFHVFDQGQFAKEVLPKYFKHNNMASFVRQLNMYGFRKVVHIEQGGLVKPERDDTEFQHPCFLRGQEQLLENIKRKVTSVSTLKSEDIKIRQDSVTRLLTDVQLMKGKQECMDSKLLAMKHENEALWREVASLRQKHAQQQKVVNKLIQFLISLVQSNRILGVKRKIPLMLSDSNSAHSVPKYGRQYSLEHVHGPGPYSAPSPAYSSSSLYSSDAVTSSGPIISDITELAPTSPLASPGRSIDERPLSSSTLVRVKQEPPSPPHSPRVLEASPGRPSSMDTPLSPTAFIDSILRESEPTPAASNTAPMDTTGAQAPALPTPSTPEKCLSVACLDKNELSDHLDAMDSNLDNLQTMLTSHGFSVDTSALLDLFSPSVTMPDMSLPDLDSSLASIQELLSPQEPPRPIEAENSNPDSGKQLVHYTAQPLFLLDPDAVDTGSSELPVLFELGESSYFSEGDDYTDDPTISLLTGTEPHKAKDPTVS

INS1 = experiment: beta cell apoptosis inhibitors, cytokine rescue, dose response, luminescence, retest (AID 449756); assay type: functional, cell-based; conditions: Rattus norvegicus;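 note: cell death triggered by IL-1 beta plus TNF-alpha plus IFN-gamma mixture; protective hits raise ATP signal compared with cytokine alone wells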
[4] = Shn3 3'UTR reporter inhibitors, dose response, cell-based, Clone20 osteoblasts, firefly luciferase, cherry-picked (AID 624132); assay type: functional;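 note: firefly luciferase luminescence from reporter carrying the Shn3 3'UTR in osteoblasts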
[5] = HepG2 cell cytotoxicity, dose response, cytotoxicity control for Shn3 inhibitor project, CellTiter-Glo, cherry-picked (AID 624134); assay type: functional, cell-based
Nonstructural protein 1 = Nonstructural protein 1 (Influenza A virus, UniProt Q194T2); assay type: functional, Influenza A virus (A/California/07/2009(H1N1))
Chain of Nonstructural protein 1 (Q194T2 whole entry): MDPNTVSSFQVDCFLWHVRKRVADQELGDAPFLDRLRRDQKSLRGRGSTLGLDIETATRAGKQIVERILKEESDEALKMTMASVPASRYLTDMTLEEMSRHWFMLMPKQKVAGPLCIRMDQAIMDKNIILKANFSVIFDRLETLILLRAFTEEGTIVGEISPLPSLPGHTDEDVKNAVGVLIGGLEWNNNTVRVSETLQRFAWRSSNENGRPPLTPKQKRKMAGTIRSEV

H9c2 = experiment: cells; assay type: functional, cell-based; conditions: Rattus norvegicus, H9c2, Myocardium
[6] = inhibitors of intracellular T. cruzi replication, confirmation, NIH3T3 host cells, beta-gal luminescence (AID 2044); assay type: functional, cell-based;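 note: intracellular parasites grown in NIH/3T3 mouse fibroblasts as host cells; luminescent beta-galactosidase reporter signal from transgenic T. cruzi replicating inside host cells; inhibitors lower the luminescence signal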
[7] = cytotoxicity toward NIH3T3 fibroblasts, dose response, counter-screen, cell-based, ATP luminescence, mouse fibroblasts (AID 2010); assay type: functional;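 note: cells exposed to compound for about 90 hours before reading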
[8] = HEp-2 cell cytotoxicity, dose response, cytotoxicity control for RSV inhibitor project, HTS (AID 2410); assay type: functional; conditions: human respiratory syncytial virus
[9] = Luminescence Cell-Based Dose Retest to Confirm Inhibitors of Cancer Stem Cells. [Related pubchem assays (depositor defined):AID2717, AID2721]; assay type: functional; conditions: Homo sapiens
[10] = inhibitors of firefly luciferase expression or activity, dose response, H4 neuroglioma cells, luminescence (AID 1990); assay type: functional, cell-based
[11] = Luminescence Cell-Based Dose Response HTS to Identify Inhibitors of 5'UTR Stem-Loop Driven Prion Protein mRNA Translation in H4 Neuroglioblastoma Cells. [Related pubchem assays: 1827 (Project Summary), 1813 (Primary HTS)]; assay type: functional
[12] = test system: Streptococcus sp. 'group A'; experiment: growth inhibition of control SK(-) GAS strain, dose response, counter-screen for streptokinase expression inhibitor project, luminescence, kanamycin, BacTiterGlo, confirmation (AID 1900); assay type: functional, organism-based
Streptokinase A = biological target: T3, Streptokinase A (Streptococcus pyogenes serotype M1, UniProt P10520); experiment: S. pyogenes streptokinase expression inhibitors, potency, dose response, plasminogen activation absorbance, OD405 (AID 1914); assay type: functional, Streptococcus pyogenes M1 GAS;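 note: secreted streptokinase activity via plasminogen activation per viability signal from cell pellet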
T3 sequence (P10520 whole entry): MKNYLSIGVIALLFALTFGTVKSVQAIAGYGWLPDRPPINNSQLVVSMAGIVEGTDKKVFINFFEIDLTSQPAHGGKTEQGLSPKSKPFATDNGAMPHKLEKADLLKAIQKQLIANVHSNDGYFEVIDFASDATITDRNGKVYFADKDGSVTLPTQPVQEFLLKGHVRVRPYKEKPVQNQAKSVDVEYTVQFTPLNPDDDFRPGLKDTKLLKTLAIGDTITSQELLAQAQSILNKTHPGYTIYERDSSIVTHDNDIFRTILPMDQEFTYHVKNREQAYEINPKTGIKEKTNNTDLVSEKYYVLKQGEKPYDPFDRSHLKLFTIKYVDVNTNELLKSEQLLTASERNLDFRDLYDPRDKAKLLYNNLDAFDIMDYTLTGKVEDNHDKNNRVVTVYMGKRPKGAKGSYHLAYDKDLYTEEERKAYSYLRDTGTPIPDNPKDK

[13] = biological target: T4, Calpain-2 catalytic subunit (Sus scrofa, UniProt P43367); experiment: pig calpain II inhibitor potency, dose response, biochemical, fluorogenic peptide substrate (AID 1420); assay type: functional
T4 sequence (P43367 whole entry): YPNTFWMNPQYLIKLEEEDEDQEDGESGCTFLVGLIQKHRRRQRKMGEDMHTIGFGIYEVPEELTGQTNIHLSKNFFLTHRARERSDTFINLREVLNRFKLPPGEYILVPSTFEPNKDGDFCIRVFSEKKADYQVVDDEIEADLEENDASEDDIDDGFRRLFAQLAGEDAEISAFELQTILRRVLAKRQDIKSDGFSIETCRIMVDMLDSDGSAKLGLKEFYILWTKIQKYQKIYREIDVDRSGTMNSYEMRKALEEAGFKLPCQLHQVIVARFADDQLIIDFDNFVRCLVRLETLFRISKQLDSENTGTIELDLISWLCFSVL

Streptococcus = experiment: Group A Streptococcus viability loss, dose response, counter-screen for streptokinase expression inhibitor project, luminescence, BacTiterGlo (AID 1915); assay type: functional, organism-based;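 note: potency for reduction of bacterial viability or growth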
[14] = P. falciparum Dd2 growth inhibitors, dose response, SYBR Green, cherry-picked samples (AID 1159567); assay type: functional, cell-based

## CC(=O)Nc1ccc(S(=O)(=O)N2CCN(c3nnnn3-c3ccccc3)CC2)cc1
[1]
  IC50: > 47.1 µM (inactive)
[2]
  EC50: > 53 µM (inactive)

## O=C1CC(c2ccccc2)CN1S(=O)(=O)c1ccccc1 (centres undefined)
[1]
  IC50: > 47.1 µM (inactive)
[2]
  EC50: > 53 µM (inactive)

## Cc1cccc2c(C(=O)N3CCN(c4ccccn4)CC3)cc(-c3cccc(Br)c3)nc12
[3]
  EC50: > 195 µM (not active)
INS1
  AC50: 3.73 µM (active)
[4]
  AC50: 6.48 µM (active)
[5]
  AC50: 45.4 µM (active)

## Cc1c(N2C(=O)C3C4C=CC(C5CC45)C3C2=O)c(=O)n(-c2ccccc2)n1C (centres undefined)
[1]
  IC50: > 47.1 µM (inactive)
[2]
  EC50: > 53 µM (inactive)

## COc1cc(OC)c2ccc(=O)oc2c1C(CCN1CCN(c2ccccc2)CC1)c1ccc(N(C)C)cc1 (centres undefined)
Nonstructural protein 1
  IC50: 32.5 µM (active)

## N#CCc1ccc(NS(=O)(=O)c2cccs2)cc1
[1]
  IC50: > 47.1 µM (inactive)
[2]
  EC50: > 53 µM (inactive)

## Cc1ccc(CCNC(=O)C2CCCN(S(=O)(=O)N3CC(C)CC(C)C3)C2)cc1 (centres undefined)
[1]
  IC50: > 47.1 µM (inactive)
[2]
  EC50: > 53 µM (inactive)

## Cc1ccc(CN(C)C(=O)CCc2c[nH]c3ccccc23)o1
[1]
  IC50: > 47.1 µM (inactive)
[2]
  EC50: > 53 µM (inactive)

## CCOC(=O)N1CCN(C2=C(NS(=O)(=O)c3ccc(C)cc3)C(=O)c3ccccc3C2=O)CC1
Nonstructural protein 1
  IC50: 21.5 µM (active)

## CCCN(CC(=O)Nc1ccc(F)c(F)c1F)C(=O)CCc1nc(O)c2ccccc2n1
H9c2
  IC50: 9.51 µM (active)

## COc1ccc(NC(=O)c2cc3c(=O)n(C)c4ccccc4c3n2C)cc1OC
H9c2
  IC50: > 79 µM (inactive)

## O=C(CSc1nnc(-c2cccnc2)n1Cc1ccco1)c1ccccc1
H9c2
  IC50: 32.4 µM (inactive)

## Cc1ccc(-n2cnn(-c3ccc([N+](=O)[O-])cc3[N+](=O)[O-])c2=O)cc1
[6]
  EC50: 1.54 µM (active)
[7]
  EC50: > 60 µM (not active)
Nonstructural protein 1
  IC50: > 100 µM (active)

## Oc1nc2cccc(F)c2n2cccc12
[8]
  CC50: 30 µM (active)
H9c2
  IC50: > 79 µM (inactive)

## O=C(c1ccc2[nH]c3c(c2c1)CCCC3)N1CCN(c2ccc(F)cc2)CC1
Nonstructural protein 1
  IC50: > 100 µM (active)

## COc1ccc(C(=O)COC(=O)C(CCCCN2C(=O)C3C4C=CC(C4)C3C2=O)N2C(=O)C3C4C=CC(C4)C3C2=O)cc1 (centres undefined)
H9c2
  IC50: > 79 µM (inactive)

## CN1C(=O)/C(=C/c2cc(N=Nc3ccccc3)ccc2O)SC1=S
[9]
  AC50: 644 nM (active)
Nonstructural protein 1
  IC50: 14.5 µM (active)

## COc1ccc(C)cc1S(=O)(=O)N1CCN(S(=O)(=O)c2cc(C)ccc2OC)CC1
[1]
  IC50: > 47.1 µM (inactive)
[2]
  EC50: > 53 µM (inactive)

## COC(=O)C1=C(C)N(C)C(C)=C(C(=O)OC)C1c1ccc(F)c(Br)c1
[1]
  IC50: > 47.1 µM (inactive)
[2]
  EC50: > 53 µM (inactive)

## CCCCn1nc(NC(=O)c2cccs2)c2cc3ccccc3nc21
[8]
  CC50: 25.5 µM (active)
H9c2
  IC50: > 79 µM (inactive)

## O=C(CSc1ccc(-c2ccccn2)nn1)NCc1ccc(Cl)cc1
Nonstructural protein 1
  IC50: 41.9 µM (active)

## CCn1cc(C(=O)N2CCN(c3ccc([N+](=O)[O-])cc3)CC2)c(=O)c2ccc(C)nc21
[10]
  EC50: 21.6 µM (active)
[11]
  EC50: > 120 µM (not active)

## COc1ccc(N2CCN(C(=O)CCC(=O)N3CCOc4ccc(Cl)cc43)CC2)cc1
Nonstructural protein 1
  IC50: > 100 µM (active)

## COc1cccc(NC(S)=NN=C2CCCCCC2)c1
[12]
  EC50: 17.5 µM (active)
Streptokinase A
  EC50: > 150 µM (not active)
[13]
  IC50: > 50 µM (not active)
Streptococcus
  EC50: > 150 µM (not active)

## Cc1ccccc1N=C(S)Nc1cccc2cnccc12
INS1
  AC50: > 260 µM (inactive)

## Cc1ccc(C)c(-c2csc(NC(=O)C3=COCCO3)n2)c1
INS1
  AC50: 7.19 µM (active)

## CC1CCCC(C)N1C(=O)COC(=O)COc1ccc(C#N)cc1 (centres undefined)
[1]
  IC50: > 47.1 µM (inactive)
[2]
  EC50: > 53 µM (inactive)

## C/C(=N\NC(=O)c1ccccc1-n1cccc1)c1ccccn1
H9c2
  IC50: 38.8 µM (inactive)

## COC(=O)/C(=C(O)\C=C\c1ccccc1[N+](=O)[O-])c1nc2ccccc2[nH]1
H9c2
  IC50: > 79 µM (inactive)

## C/C(=N\NC(N)=S)c1ccncc1
INS1
  AC50: > 260 µM (inactive)

## C[C@@H]1CN([C@H](C)CO)C(=O)c2cccc(NC(=O)Nc3cccc4ccccc34)c2O[C@H]1CN(C)C(=O)NC1CCCCC1
[14]
  AC50: 4.98 µM (active)

## C[C@@H]1CN([C@@H](C)CO)C(=O)Cc2cc(NC(=O)NC3CCCCC3)ccc2O[C@H]1CN(C)C(=O)Nc1cccc2ccccc12
[14]
  AC50: 5.11 µM (active)

## CN(C)c1ccc2c(c1)[C@@H]1C[C@@H](CC(=O)NCc3cc(F)ccc3F)O[C@@H](CO)[C@@H]1O2
[14]
  AC50: 13.3 µM (active)
